Source: patent US20030138423A1, “Method of treating inflammation with HIV-1 protease inhibitors and their derivatives” (CEDARS-SINAI MEDICAL CENTER, priority 2001, published 2003)
Entries after “also recorded” stand apart in the source; their conditions may differ.

Experiments:
[1] = test system: NF-κB; assay: PSM-induced NF-κB luciferase activation in HMEC; format: cell-based, human; conditions: one-hour pretreatment
[2] = test system: NF-κB; assay: STF-induced NF-κB luciferase activation in HMEC; format: cell-based, human; conditions: one-hour pretreatment
[3] = test system: IκB-α; assay: LPS-induced IκB-α degradation in HMEC, Western blot; format: cell-based, human; conditions: HMEC pretreated one hour, LPS 30, 60, 90 minutes
Description: Conditioned endothelial cells were lysed for 30 minutes on ice in a lysis buffer containing 0.1 mM ethylenediamine tetra-acetic acid (“EDTA,” available from Sigma), 10 mM NaF, 1 mM Na3VO4, 0.1% Triton X-100, 20 mM Tris-HCl (pH 7.5), and 1 μg/ml each of the protease inhibitors pepstatin, leupeptin, aprotinin, antipain, and chymostatin (all available from Roche).
Following lysis, cell debris was removed by centrifugation (14,000×g, 4° C., 1-2 minutes). Protein concentrations were determined using the Bradford assay. 50 μg of total protein was added in Laemmli buffer, boiled for 5 minutes, resolved by 10% sodium dodecyl sulphate polyacrylamide gel electrophoresis (“SDS-PAGE”) in Tris/glycine/SDS buffer (25 mM Tris, 250 mM glycine, 0.1% SDS), and blotted onto Immunobilon P transfer membranes (obtained from Amersham Pharmacia Biotech UK Ltd.; Buckinghamshire, England, hereinafter “Amersham”) (100 V, 1.5 hours, 4° C.). […] Membranes were thereafter and washed five times in PBST, and bands were detected using ECL reagents (obtained from Amersham) according to manufacturer's description.
Upon exposure of immune system cells to bacterial and mycobacterial antigens, IκB-α degradation is the key step before NF-κB activation. We assessed the effect of nelfinavir pretreatment of HMEC on LPS-induced IκB-α degradation. […] IκB-α degradation was assessed by Western Blot analysis for phosphorylated IκB-α.

[4] = test system: HMEC; assay: LDH release (cell death) in HMEC; format: cell-based, human; conditions: pretreatment prior to LPS stimulation
Description: For the quantification of nelfinavir-induced cell death, lactate dehydrogenase (LDH) activity in HMEC culture supernatants was measured with a cytotoxicity detection kit (obtained from Roche Diagnostics; Indianapolis, Ind., hereinafter “Roche”) according to manufacturer's instructions. Percentage of LDH activity in the supernatants was calculated according to the following: [(Experimental Value—LDH activity released from untreated cells)/(Maximum Releasable LDH Activity in the Cells by 1% Triton X-100-LDH Activity Released from Untreated Cells)]×100.

[5] = test system: IL-6; assay: LPS-induced IL-6 luciferase activation in HMEC; format: cell-based, human; conditions: 1-hour pretreatment
From the text: Interleukin-6 (IL-6) is a known proinflammatory cytokine that mediates development of LPS-induced sepsis and septic shock.

[6] = test system: TNF-α; assay: LPS-induced TNF-α production in THP-LTR-Luc cells, ELISA; format: cell-based; conditions: THP-LTR-Luc cells (FIG. 9 legend)
Description: After five hours of LPS stimulation, supernatants from HMEC were analyzed for TNF-α production by using an ELISA kit (obtained from R&D Systems; Minneapolis, Minn.) according to manufacturer's instructions. All data for TNF-α represent the average of triplicate samples ±S.D. Each experiment was repeated at least twice.

[7] = test system: NF-κB; assay: TNF-α-induced NF-κB activation in HMEC; format: cell-based, human; conditions: one-hour pretreatment, TNF-α 100 ng/ml
[8] = molecular target: T1, erythrocyte 20S proteasome (Homo sapiens, UniProt P28074); assay: 20S Proteasome Assay, Suc-LLVY-AMC substrate; format: biochemical; conditions: SDS-preactivated erythrocyte 20S proteasome
T1 construct: purchased Biomol Research Laboratories, Inc; host or cells: erythrocytes (purified native complex)
Description: The effect of nelfinavir on 20S proteasome activity was assessed using a 20S Proteasome Assay Kit (obtained from Biomol Research Laboratories, Inc.; Plymouth Meeting, Pa.) according to manufacturer's instructions. Briefly, erythrocyte 20S proteasome that is preactivated by SDS was added to Suc-LLVY-AMC fluorogenic peptide substrate, which is used to measure the chymotrypsin like peptidase activity, with or without nelfinavir. A proteasome inhibitor, lactacystin, was included as a control. The microtiter plate was read at an approximate excitation of 360 nm and at emission 460 nm. All data represent the average of triplicate samples ±S.D.

[9] = molecular target: 20S proteasome (Mus musculus, UniProt O55234); conditions: literature; cited from earlier work
[10] = test system: NF-κB; assay: LPS-induced NF-κB luciferase activation in HMEC; conditions: pretreatment before LPS, nelfinavir 1, 3, 6 μg/ml
[11] = test system: HIV-LTR; assay: LPS-induced HIV-LTR luciferase activation in HMEC; conditions: nelfinavir 1, 3, 6 μg/ml (FIG. 2) or 0.5, 2, 4 μg/ml (FIG. 6)
[12] = test system: lymphocytic choriomeningitis virus (LCMV); conditions: mice infected with LCMV, literature; cited from earlier work
[13] = test system: MB-1 (X) and/or LMP7 proteasome subunits; conditions: vinyl sulfone inhibitor 125I-NLVS, literature; cited from earlier work

Compound | PSM-induced NF-κB activation (percent NF-κB luciferase activity) [1] | STF-induced NF-κB activation (percent NF-κB luciferase activity) [2] | LPS-induced IκB-α degradation [3] | cell death (LDH release) [4] | LPS-induced IL-6 luciferase activation [5] | LPS-induced TNF-α production [6] | TNF-α-induced NF-κB activation [7] | chymotrypsin-like activity of 20S proteasome [8] | chymotrypsin-like activity of the 20S proteasome [9] | LPS-induced NF-κB activation (percent NF-κB luciferase activity) [10] | LPS-induced HIV-LTR activation (percent HIV-LTR luciferase activity) [11] | LCMV replication [12] | protection of proteasome subunits from covalent active site modification [13]
Cc1c(O)cccc1C(=O)N[C@@H](CSc1ccccc1)[C@H](O)CN1C[C@H]2CCCC[C@H]2C[C@H]1C(=O)NC(C)(C)C [nelfinavir] | blocked NF-κB activation; also recorded: blocked both STF and PSM | blocked NF-κB activation; also recorded: blocked both STF and PSM | markedly less LPS-induced IκB-α degradation; also recorded: delayed the degradation; also recorded: a delay in LPS-induced IκB-α degradation | without inducing apoptosis or death of the cells; also recorded: did not induce cell death; also recorded: not induced | blocked LPS-induced IL-6 luciferase activation | blocked production to a lesser extent | down-regulated | did not inhibit the chymotrypsin-like activity of 20s proteasome | no inhibition at all | blocked LPS-induced NF-κB activation in a dose-dependent manner; also recorded: decreased the NF-κB activity | blocked LPS-induced HIV-LTR activation in a dose-dependent manner |  | 
CC(C)(C)NC(=O)[C@@H]1C[C@@H]2CCCC[C@@H]2CN1C[C@@H](O)[C@H](Cc1ccccc1)NC(=O)[C@H](CC(N)=O)NC(=O)c1ccc2ccccc2n1 [saquinavir] |  |  |  |  | blocked LPS-induced IL-6 luciferase activation | blocked TNF-α production | down-regulated |  | inhibited chymotrypsin-like activity to a significantly lesser degree | blocked LPS-induced NF-κB activation; also recorded: more potent than indinavir; also recorded: down-regulation of LPS-induced NF-κB activation |  |  | 
CC(C)(C)NC(=O)[C@@H]1CN(Cc2cccnc2)CCN1C[C@@H](O)C[C@@H](Cc1ccccc1)C(=O)N[C@H]1c2ccccc2C[C@H]1O [indinavir] |  |  |  |  | blocked LPS-induced IL-6 luciferase activation | blocked TNF-α production |  |  | no inhibition at all |  |  |  | 
CC(C)c1nc(CN(C)C(=O)N[C@H](C(=O)N[C@@H](Cc2ccccc2)C[C@H](O)[C@H](Cc2ccccc2)NC(=O)OCc2cncs2)C(C)C)cs1 [ritonavir] |  |  |  |  | blocked LPS-induced IL-6 luciferase activation | blocked production to a lesser extent | down-regulated |  | selectively inhibit the chymotrypsin-like activity of the 20S proteasome | blocked LPS-induced NF-κB activation; also recorded: more potent than indinavir; also recorded: down-regulation of LPS-induced NF-κB activation |  | not affected | protected the MB-1 (X) and/or LMP7 proteasome subunits from covalent active site modification
